In patent publication US20210346357A1 (priority 2020, published 2021):
Values joined by “and” are separate entries in the source; they are usually repeats but may differ in a detail not shown here. Identical values can stand only once.

Test system: Symptomatic Acute Lung Injury Associated with COVID-19
Experiment: Phase 2 study Part 1, inhaled compound 1 in hospitalized COVID-19 patients
Details: for # Subjects Respiratory Failure-Free / # Subjects Alive: number of subjects; for IFN-γ, within-group percent difference in geometric mean from baseline / IL-6, within-group percent difference in geometric mean from baseline / IL-8, within-group percent difference in geometric mean from baseline / IL-10, within-group percent difference in geometric mean from baseline / IP-10, within-group percent difference in geometric mean from baseline / MCP-1, within-group percent difference in geometric mean from baseline / MDC, within-group percent difference in geometric mean from baseline / RAGE, within-group percent difference in geometric mean from baseline / TARC, within-group percent difference in geometric mean from baseline / hsCRP, within-group percent difference in geometric mean from baseline: matched D1 and D7 samples; for Time to Hospital Discharge (Days) Mean ± SD: still hospitalized or died = 28 days; for # Subjects Alive, percent / Died (All-Cause Mortality), number / # Subjects Alive: through Day 28
[1] = COVID-19 patients, 3 mg, Day 28
[2] = COVID-19 patients, 10 mg, Day 7
[3] = COVID-19 patients, 10 mg, Day 14
[4] = COVID-19 patients, 10 mg, Day 21
[5] = COVID-19 patients, 10 mg, Day 28
[6] = mostly in the 3 mg and 10 mg doses

CCc1cc(O)ccc1-c1ccc2c(-c3nc4c([nH]3)CN(C(C)C)[C@H](C(=O)N3CC(N(C)C)C3)C4)n[nH]c2c1 [Compound 1, (S)-(3-(dimethylamino)azetidin-1-yl)(2-(6-(2-ethyl-4-hydroxyphenyl)-1H-indazol-3-yl)-5-isopropyl-4,5,6,7-tetrahydro-3H-imidazo[4,5-c]pyridin-6-yl)methanone]
Hospital Discharge, percent (COVID-19 patients, 3 mg, Day 21): 86% and 85.7%
# Subjects Respiratory Failure-Free, percent [1]: 85.7%
Hospital Discharge, number [1]: 7
Hospital Discharge, percent [1]: 100%
Proportion of Subjects Alive and Respiratory Failure-free [1]: 85.7%
Proportion of Subjects Alive and Respiratory Failure-free, number [1]: 6
# Subjects Respiratory Failure-Free [1]: 6
IFN-γ, within-group percent difference in geometric mean from baseline (COVID-19 patients, 3 mg): −90.42%
IL-6, within-group percent difference in geometric mean from baseline (COVID-19 patients, 3 mg): −80.24%
IL-8, within-group percent difference in geometric mean from baseline (COVID-19 patients, 3 mg): −48.02%
IL-10, within-group percent difference in geometric mean from baseline (COVID-19 patients, 3 mg): −70.10%
IP-10, within-group percent difference in geometric mean from baseline (COVID-19 patients, 3 mg): −81.44%
MCP-1, within-group percent difference in geometric mean from baseline (COVID-19 patients, 3 mg): −54.15%
MDC, within-group percent difference in geometric mean from baseline (COVID-19 patients, 3 mg): −23.84%
RAGE, within-group percent difference in geometric mean from baseline (COVID-19 patients, 3 mg): −82.95%
TARC, within-group percent difference in geometric mean from baseline (COVID-19 patients, 3 mg): −34.57%
hsCRP, within-group percent difference in geometric mean from baseline (COVID-19 patients, 3 mg): −74.95%
Time to Hospital Discharge (Days) Mean ± SD (COVID-19 patients, 3 mg): 15.29 ± 6.651 days
# Subjects Alive, percent (COVID-19 patients, 3 mg): 100.0%
Died (All-Cause Mortality), number (COVID-19 patients, 3 mg): 0
# Subjects Alive (COVID-19 patients, 3 mg): 7
Clinical Status at Day 28: 1-Not hospitalized, no limitations on activities, number (COVID-19 patients, 10 mg): 5
Clinical Status at Day 28: 1-Not hospitalized, no limitations on activities, percent (COVID-19 patients, 10 mg): 83.3%
Clinical Status at Day 28: 2-Not hospitalized, but with limitations on activities and/or requiring home oxygen, number (COVID-19 patients, 10 mg): 1
Clinical Status at Day 28: 2-Not hospitalized, but with limitations on activities and/or requiring home oxygen, percent (COVID-19 patients, 10 mg): 16.7%
Clinical Status at Day 28: 3-Hospitalized, not requiring supplemental oxygen, and no longer requiring ongoing medical care, number (COVID-19 patients, 10 mg): 0
Clinical Status at Day 28: 4-Hospitalized, not requiring supplemental oxygen, but requiring ongoing medical care, number (COVID-19 patients, 10 mg): 0
Clinical Status at Day 28: 5-Hospitalized, requiring supplemental oxygen, number (COVID-19 patients, 10 mg): 0
Clinical Status at Day 28: 6-Hospitalized, on non-invasive ventilation or high-flow oxygen devices, number (COVID-19 patients, 10 mg): 0
Clinical Status at Day 28: 7-Hospitalized, on invasive mechanical ventilation or extracorporeal membrane oxygenation, number (COVID-19 patients, 10 mg): 0
Clinical Status at Day 28: 8-Death, number (COVID-19 patients, 10 mg): 0
Still in Hospital at Day 28, number (COVID-19 patients, 10 mg): 0
Time to Hospital Discharge (Days) Median (COVID-19 patients, 10 mg): 16.50 days
Modified Borg Dyspnea Score, Baseline, Mean (COVID-19 patients, 10 mg group, baseline value): 6.00
Modified Borg Dyspnea Score Change from Baseline, Mean (COVID-19 patients, 10 mg, Day 2): −0.33
Modified Borg Dyspnea Score Change from Baseline, Mean (COVID-19 patients, 10 mg, Day 3): −1.17
Modified Borg Dyspnea Score Change from Baseline, Mean (COVID-19 patients, 10 mg, Day 4): −1.50
Modified Borg Dyspnea Score Change from Baseline, Mean (COVID-19 patients, 10 mg, Day 5): −1.17
Modified Borg Dyspnea Score Change from Baseline, Mean (COVID-19 patients, 10 mg, Day 6): −1.33
Hospital Discharge, number [2]: 0
Modified Borg Dyspnea Score Change from Baseline, Mean [2]: −1.67
Hospital Discharge, number [3]: 2
Hospital Discharge, percent [3]: 33.3%
Hospital Discharge, number [4]: 6
Hospital Discharge, percent [4]: 100%
# Subjects Respiratory Failure-Free, percent [5]: 100.0%
Hospital Discharge, number [5]: 6
Hospital Discharge, percent [5]: 100%
Proportion of Subjects Alive and Respiratory Failure-free [5]: 100.0%
Proportion of Subjects Alive and Respiratory Failure-free, number [5]: 6
# Subjects Respiratory Failure-Free [5]: 6
IFN-γ, within-group percent difference in geometric mean from baseline (COVID-19 patients, 10 mg): −78.59%
IL-6, within-group percent difference in geometric mean from baseline (COVID-19 patients, 10 mg): −58.84%
IL-8, within-group percent difference in geometric mean from baseline (COVID-19 patients, 10 mg): −25.87%
IL-10, within-group percent difference in geometric mean from baseline (COVID-19 patients, 10 mg): −40.57%
IP-10, within-group percent difference in geometric mean from baseline (COVID-19 patients, 10 mg): −79.32%
MCP-1, within-group percent difference in geometric mean from baseline (COVID-19 patients, 10 mg): −21.15%
MDC, within-group percent difference in geometric mean from baseline (COVID-19 patients, 10 mg): −6.70%
RAGE, within-group percent difference in geometric mean from baseline (COVID-19 patients, 10 mg): −54.44%
TARC, within-group percent difference in geometric mean from baseline (COVID-19 patients, 10 mg): −21.21%
hsCRP, within-group percent difference in geometric mean from baseline (COVID-19 patients, 10 mg): −52.13%
Time to Hospital Discharge (Days) Mean ± SD (COVID-19 patients, 10 mg): 15.17 ± 4.446 days
# Subjects Alive, percent (COVID-19 patients, 10 mg): 100.0%
Died (All-Cause Mortality), number (COVID-19 patients, 10 mg): 0
# Subjects Alive (COVID-19 patients, 10 mg): 6
tolerability (COVID-19 patients, single daily dose of 1 mg, 3 mg, and 10 mg for up to 7 days): generally well tolerated
% subjects alive/reduced mortality, compared to Placebo (all compound 1 groups): positive trend
% subjects respiratory-failure free at Day 28, compared to Placebo (all compound 1 groups): positive trend
clinical improvement, 8-point Clinical Status Scale from Day 1 to Day 28, compared to Placebo (all compound 1 groups): positive trend
earlier time to hospital discharge, compared to Placebo (all compound 1 groups): positive trend
improvement in Modified Borg Dyspnea Score in mean change from baseline at Day 7, compared to Placebo (all compound 1 groups): positive trend
reduction in alveolar epithelial cell injury marker RAGE [6]: positive trend
reduction of inflammation markers including hsCRP, IFN-g, IL-6, IP-10 [6]: positive trend
